Assay [1] concerns HepG2 human liver cancer cell line. In words: Functional Mitochondrial Toxicity Assay, XFe96 Seahorse (HepG2). Type of assay: cell-based. Conditions: HepG2. The protocol: (§1) The present Examples interrogate the two major energy producing pathways in the cell, mitochondrial respiration and glycolysis. HepG2 human liver cancer cell lines were dosed with test compounds and in real time the extracellular oxygen levels and pH were measured using the XFe96 flux analyser (Seahorse Biosciences). XFe Technology uses solid-state sensors to simultaneously measure both oxygen consumption rate (OCR) and extracellular acidification rate (ECAR) to determine effects on oxidative phosphorylation (OXPHOS) and glycolysis simultaneously. The cells were then subjected to sequential exposure to various inhibitors of mitochondrial functional to assess cellular metabolism.
(§2) A positive mitochondrial active compound is determined when there is a change in OCR or ECAR in the absence of cytotoxicity. Cytotoxicity was determined when both oxidative phosphorylation (OCR) and glycolysis (ECAR) were inhibited.
(§3) OCR is a measurement of oxygen content in extracellular media. Changes in OCR indicate effects on mitochondrial function, and can be bi-directional. A decrease is due to an inhibition of mitochondrial respiration, whilst an increase may indicate an uncoupler, in which respiration is not linked to energy production.
(§4) ECAR is the measurement of extracellular proton concentration (pH). An increase in signal means an increase in rate in number of pH ions (Thus decreasing pH value), and seen as an increase in glycolysis. Expressed as a fraction of basal control (rate prior to addition of compound).
(§5) Reverse capacity is the measured ability of cells to respond to an increase in energy demand, a reduction indicates mitochondrial dysfunction.
(§6) The Mitochondrial Stress Test is a series of sequential additions of compounds to the cells to assess a bioenergetics profile, and effects of test compounds on parameters such as proton leak and research capacity. This was used to assist in understanding potential mechanisms of mitochondrial toxicity. For example, it involves the addition of the follow compounds in this order:
Oligomycin is a known inhibitor of ATP synthase, and prevents the formation of ATP. This provides a measurement of the amount of oxygen consumption related to ATP production and ATP turnover. The addition of Oligomycin results in a decrease in OCR under normal conditions, and residual OCR is related to the natural proton leak.
Carbonyl cyanide 4-(trifluoromethoxy)phenylhydrazine (FCCP) is a protonphore, and is a known uncoupler of oxygen consumption from ATP production. This allows the maximum achievable transfer of electrons and oxygen consumption rate, and provides a measurement of reserve capacity.
Rotenone and antimycin A are known inhibitors of complex I and III of the electron transport chain, respectively. This inhibits electron transport completely, and any residual oxygen consumption is due to non-mitochondrial activity via oxygen requiring enzymes.

Assay [2] deals with GM01299 propionic acidemia human cell line. The experiment in a line: Functional Mitochondrial Toxicity Assay (GM01299). Type of assay: cell-based. As to the method:
as §1, §2, §3, §4, §5, §6
The present Example interrogates the two major energy producing pathways in the cell, mitochondrial respiration and glycolysis. A GM01299 propionic acidemia human cell line was dosed with test compound I-17 using the general protocol outlined in Example 2 above.

The test system of assay [3] is GM05162 Duchenne muscular dystrophy human cell line. In words: Functional Mitochondrial Toxicity Assay (GM05162). Type of assay: cell-based. The protocol:
as §1, §2, §3, §4, §5, §6
The present Example interrogates the two major energy producing pathways in the cell, mitochondrial respiration and glycolysis. A GM05162 Duchenne muscular dystrophy human cell line was dosed with test compound I-17 using the general protocol outlined in Example 2 above.

Assay [4] has as its system GM01061 Huntington Disease human cell line. The experiment in a line: Functional Mitochondrial Toxicity Assay (GM01061). Type of assay: cell-based. As to the method:
as §1, §2, §3, §4, §5, §6
The present Example interrogates the two major energy producing pathways in the cell, mitochondrial respiration and glycolysis. A GM01061 Huntington Disease human cell line was dosed with test compound I-39 using the general protocol outlined in Example 2 above.

Assay [5] concerns GM16548 Rett syndrome human cell line. The experiment in a line: Functional Mitochondrial Toxicity Assay (GM16548). Type of assay: cell-based. The protocol:
as §1, §2, §3, §4, §5, §6
The present Example interrogates the two major energy producing pathways in the cell, mitochondrial respiration and glycolysis. A GM16548 Rett syndrome human cell line was dosed with test compound I-39 using the general protocol outlined in Example 2 above.

Assay [6] relates to mitochondria. Conditions: cited from earlier work.
In assay [7] the test system is immortalized human trabecular meshwork (iHTM) cells. Conditions: Chen et al. 2011; cited from earlier work.
Assay [8] has as its system glaucomatous human trabecular meshwork (GTM3) cells. As to conditions: Chen et al. 2011; cited from earlier work.
The conditions of assay [9]: Szeto et al. 2013; cited from earlier work.
Assay [10] relates to mitochondria. Conditions: US 2004/0248808, U.S. Pat. No. 7,718,620; cited from earlier work.
Where [11] appears, read: read-out: Reserve Capacity AC50.

The values below come from patent US10870678B2, “Chiral peptides” (ARCUATE THERAPEUTICS, INC., priority 2016, dated 2020).

Where two headings read alike, the source gives them in different places.

In general, AC50 refers to the midpoint of the concentration-response curve, whichever way the signal moves. Turning to `O=C(O)CCC(=O)O` [Succinate], in assay [1], the “OCR MEC” value turned out to be 74.8 µM. Besides, the “OCR ↑↓” value in [1] is given as “↑”. Further, the “Potential Mechanism” value was “Uncoupler” in assay [1]; “Other” in assay [2]; “Other” in assay [3]; “No effect” in assay [4]; “Other” in [5]. For the same compound, the results for the “Reserve Capacity MEC” value in [1], in [2] and in assay [5] were 62.5 µM, 38.2 µM and 72.3 µM, respectively. Besides, the “Reserve Capacity ↑↓” value in [1], in assay [2] and in assay [5] was “↑” throughout. The half-maximal activity concentration (AC50) in [1] (read-out: ECAR AC50), in assay [1] (read-out: OCR AC50), in [1] (setting [11]), in assay [2] (read-out: ECAR AC50), in [2] (read-out: OCR AC50) and in assay [2] (setting [11]) was > 100 µM in each case. The AC50 was 2.91 µM in [3] (read-out: ECAR AC50); > 100 µM in assay [3] (setting [11]); > 100 µM in [4] (read-out: ECAR AC50); > 100 µM in [4] (setting [11]); > 100 µM in assay [5] (read-out: ECAR AC50); > 100 µM in assay [5] (read-out: OCR AC50). Also, the concentration at half-maximal activity (AC50) in [5] (setting [11]) is > 100 µM. Besides, the “ECAR MEC” value in assay [3] is 0.179 µM. Also, the “ECAR ↑↓” value in assay [3] is on record as “↑”.
For `CC(O)CC(=O)O` (stereo not drawn) [β-OHB], the “Potential Mechanism” value in [1], in assay [2], in assay [3], in [4] and in assay [5] was “Other” throughout. Further, the “Reserve Capacity MEC” value was found to be 53.0 µM in assay [1]; 25.3 µM in [2]; 1.15 µM in assay [3]; 81.1 µM in assay [4]; 23.1 µM in assay [5]. Moreover, the “Reserve Capacity ↑↓” value in assay [1], in assay [2], in assay [3], in [4] and in assay [5] was “↑” in each case. The concentration at half-maximal activity (AC50) in assay [1] (read-out: ECAR AC50), in assay [1] (read-out: OCR AC50), in assay [1] (setting [11]), in assay [2] (read-out: ECAR AC50), in assay [2] (read-out: OCR AC50) and in assay [2] (setting [11]) was > 100 µM throughout. In addition, the AC50 is > 100 µM in assay [3] (read-out: ECAR AC50); 69.5 µM in assay [3] (setting [11]); > 100 µM in [4] (read-out: ECAR AC50); > 100 µM in [4] (read-out: OCR AC50); > 100 µM in assay [4] (setting [11]); > 100 µM in assay [5] (read-out: ECAR AC50). Also, the AC50 in assay [5] (setting [11]) was 72.2 µM. The “ECAR MEC” value in [2] is 89.8 µM. Besides, in [2], the “ECAR ↑↓” value is recorded as “↓”.
Regarding “(D-Arg)(L-Dmt)(L-Lys)(L-Phe)-NH2 [Peptide I-1, reference compound]”, in the assay on mitochondria [6], the “reactive oxygen species (ROS) in the mitochondria” value is “reduces”. Further, the “sustained oxidative stress induced by H2O2” value in assay [7] and in [8] was “prevent” throughout. Moreover, the “ECAR ↑↓” value in [1] was “↓”. Moreover, in [1], the “Reserve Capacity ↑↓” value is “↑”. The “Potential Mechanism” value in assay [1] (listed as I-1 (1)) is listed as “No effect”; in assay [1] (listed as I-1 (2)), “Other”. Besides, the AC50 in assay [1] (listed as I-1 (1), read-out: ECAR AC50) was > 100 µM; in assay [1] (listed as I-1 (1), read-out: Reserve Capacity AC50), > 100 µM; in [1] (listed as I-1 (2), read-out: ECAR AC50), > 100 µM; in assay [1] (listed as I-1 (2), read-out: Reserve Capacity AC50), > 100 µM; in assay [1] (read-out: OCR AC50), > 100 µM. The “ECAR MEC” value in [1] (listed as I-1 (2)) was 14.3 µM. In assay [1] (listed as I-1 (2)), the “Reserve Capacity MEC” value is 90.3 µM. Further, in assay [9], the “binding to cardiolipin within the inner mitochondria membrane” value is “binding to cardiolipin”. The “number of mitochondria undergoing MPT” value in the assay on mitochondria [10] is given as “significantly reduce”.
In the case of “(D-Phe)(D-Orn)(D-Tyr)(D-Orn)-NH2 [Peptide I-39]”, the “ECAR ↑↓” value in assay [1] is “↓”. Also, the entries for the “Potential Mechanism” value in [1], in assay [4] and in assay [5] were “Other”, “No effect” and “Other”, respectively. Further, the “Reserve Capacity ↑↓” value in assay [1] and in assay [5] was “↑” throughout. Moreover, the “ECAR MEC” value in assay [1] (listed as I-39(1)) is 30.1 µM; in [1] (listed as I-39(2)), 15.3 µM; in assay [1] (listed as I-39(3)) it was 21.2 µM. Besides, the “Reserve Capacity MEC” value was determined as 92.4 µM in assay [1] (listed as I-39(1)), 67.6 µM in [1] (listed as I-39(2)), 77.3 µM in assay [1] (listed as I-39(3)) and 60.2 µM in assay [5]. Also, the AC50 in assay [1] (read-out: ECAR AC50), in assay [1] (read-out: OCR AC50), in [1] (setting [11]), in [4] (read-out: ECAR AC50), in assay [4] (setting [11]) and in [5] (read-out: ECAR AC50) was > 100 µM throughout. The AC50 in assay [5] (read-out: OCR AC50) and in assay [5] (setting [11]) was > 100 µM throughout.
Consider “(L-Phe)(L-Orn)(L-Dmt)(D-Arg)-NH2 [Peptide I-12]”, for which, in [1], the “Potential Mechanism” value is given as “No effect”. The AC50 in assay [1] (read-out: ECAR AC50), in [1] (read-out: OCR AC50) and in [1] (setting [11]) was > 100 µM throughout.
Turning to “(L-Phe)(L-Orn)(L-Dmt)(D-Orn)-NH2 [Peptide I-13]”, in assay [1], the “Potential Mechanism” value was “Other”. The entries for the “Reserve Capacity MEC” value in [1] (listed as I-13 (1)) and in assay [1] (listed as I-13 (2)) were 13.4 µM and 0.167 µM, respectively. Also, the “Reserve Capacity ↑↓” value in assay [1] (listed as I-13 (1)) is listed as “↑”; in [1] (listed as I-13 (2)), “↓”. Further, the half-maximal activity concentration (AC50) in assay [1] (listed as I-13 (1), read-out: Reserve Capacity AC50) was 81.9 µM; in [1] (listed as I-13 (2), read-out: Reserve Capacity AC50) it was 4.72 µM; in assay [1] (read-out: ECAR AC50), > 100 µM; in assay [1] (read-out: OCR AC50), > 100 µM.
“(L-Phe)(L-Orn)(L-Leu)(D-Arg)-NH2 [Peptide I-30]”: the “Potential Mechanism” value in assay [1] was “No effect”. In addition, the half-maximal activity concentration (AC50) in assay [1] (read-out: ECAR AC50), in assay [1] (read-out: OCR AC50) and in assay [1] (setting [11]) was > 100 µM in each case.
For “(L-Phe)(L-Orn)(L-Leu)(D-Orn)-NH2 [Peptide I-31]”, the “Potential Mechanism” value in assay [1] was “No effect”. In addition, the AC50 in assay [1] (read-out: ECAR AC50), in [1] (read-out: OCR AC50) and in assay [1] (setting [11]) was > 100 µM throughout.
On to “(L-Phe)(L-Orn)(L-Phe)(D-Orn)-NH2 [Peptide I-33]”, for which the “Potential Mechanism” value in assay [1] is on record as “No effect”. Besides, the concentration at half-maximal activity (AC50) in [1] (read-out: ECAR AC50), in assay [1] (read-out: OCR AC50) and in [1] (setting [11]) was > 100 µM throughout.
For “(L-Phe)(L-Orn)(L-Tyr)(D-Arg)-NH2 [Peptide I-14]”, in assay [1], the “Potential Mechanism” value was “No effect”. For the same compound, the AC50 in [1] (read-out: ECAR AC50), in assay [1] (read-out: OCR AC50) and in [1] (setting [11]) was > 100 µM in each case.
Turning to “(L-Phe)(L-Orn)(L-Tyr)(D-Orn)-NH2 [Peptide I-15]”, in assay [1], the “Potential Mechanism” value is “Other”, the “Reserve Capacity MEC” value worked out at 64.7 µM and the “Reserve Capacity ↑↓” value is “↑”. Also, the AC50 in assay [1] (read-out: ECAR AC50) was > 100 µM. Besides, in assay [1] (read-out: OCR AC50), the AC50 is > 100 µM. In assay [1] (setting [11]), the concentration at half-maximal activity (AC50) is > 100 µM.
